How the values were obtained:
CD8+ naïve T cells = test: CD8+ naïve T cell induction (protocol 1 / protocol 2), pMHC multimer flow cytometry; type: cell-based, human; conditions: for fraction of antigen specific CD8+ T cells (multimer): HD35
Procedure: • DC media (Cellgenix) • CD14 microbeads, human, Miltenyi #130-050-201 • Cytokines and/or growth factors • T cell media (AIM V+RPMI 1640 glutamax+serum+PenStrep) • Peptide stocks—1 mM per peptide (HIV A02—5-10 peptides, HIV B07—5-10 peptides, DOM—4-8 peptides, PIN—6-12 peptides) Procedure: Step 1: Monocyte Isolation for DC Prep • 1. Calculate the approximate number of PBMCs to thaw based on expected DC yield for each donor. • 2. Thaw PBMCs and resuspend at ˜1×10^6-1×10^8 cells/mL in DC media. • 3. Add benzonase (1:1000 dilution) and place in incubator with cap loosened. • 4. Perform CD14^+ monocyte enrichment according to manufacturer protocol. • 5. Plate enriched cells in 6-well plates at 1×10^5-1×10^7 per well in DC media with one or more cytokines and/or growth factors selected from GM-CSF, IL-4, FLT3L, TNF-α, IL-1β, PGE1, IL-6, IL-7, IFN-α, R848, LPS, ss-rna40, and polyI:C. Step 2: Peptide Loading and Maturation • 1. Count DCs and split the cells according to the experimental conditions in 15 mL tubes; 0.01-1 million cells per condition. • 2. Spin @1200 rpm for 5 min and resuspend in 50-400 μL DC medium. Add peptide(s) and place in incubator with loosened cap for 0.5-3 hrs. Volumes were calculated for peptide pools at a concentration of 1 mM per peptide. A volume of each separate pool of A02 (5 peptides) and B07 (5 peptides) was added per well for a final concentration of 0.001-100 μM per peptide. • 3. After 0.5-3 hrs. add 200 μL to 1.5 mL of DC media containing maturation mix and transfer the cells to 24 well plate. The maturation mix contains one or more cytokines selected from GM-CSF, IL-4, FLT3L, TNF-α, IL-1β, PGE1, IL-6, IL-7, IFN-α, R848, LPS, ss-rna40, and polyI:C. Step 3: Setting Up Long Term Stimulation (LTS) Experiment • 1. Carefully remove all media from the wells of the DC plates, transferring each well to a separate well in a 24-well deepwell block. • 2. Wash each well with 0.5-3 mL T cell media and combine with DC media in the deepwell block. • 3. Add 100 μL to 2 mL T cell media to each well. • 4. Spin down DCs at 1200 rpm for 5 min. • 5. Remove all supernatant, resuspend DCs in 100 μL to 2 mL T cell media and transfer back into the correct wells. • 6. Thaw PBMCs in T cell media and resuspend at 0.5×10^6-4×10^6 cells/mL in T cell media with IL-7 and IL-15. • 7. Add 0.5-3 mL of prepared PBMCs to each well. Step 4: Feeding LTS
• AIM V media (Invitrogen) • Media 1 (RPMI 1640 glutamax+serum+PenStrep) • Media 2 (AIM V+RPMI 1640 glutamax+serum+PenStrep) Procedure: • Step 1: Plate 4 million PBMCs in each well of 24 well plate with one or more cytokines in Media 2. The one or more cytokines are selected from GM-CSF, IL-4, FLT3L, TNF-α, IL-1β, PGE1, IL-6, IL-7, IFN-α, R848, LPS, ss-rna40, and polyI:C. • Step 2: Peptide loading and maturation in Media 2 • 1. Make stock peptide pool of interest (except for no peptide condition) at 0.001-100 μM for shortmers and 0.001-100 μM for longmers final concentration in respective wells and mix. • 2. Incubate for 0.5-3 hr. • 3. Make stock maturation cocktail and add to each well after incubation and mix. […]

CD8+ T cells = test: RNA nucleofection of differently prepared PBMCs, multimer assay; type: cell-based, human; conditions: for Hit Rate (%) / Mean Frequency: immunogen RNA (25 mer epitopes)
Procedure: In this experiment, PBMCs were variously treated for depletion of certain populations and their expansion and multimer specificity was investigated. Yield of multimer specific T cells was tested by nucleofecting three sets of PBMC preparations with RNA constructs: (i) CD25 depleted PBMCs, (ii) CD14 and CD25 depleted PBMCs, (iii) Frozen CD14 and CD25 depleted PBMCs. In preparation (i), T cells were not separated from the APCs during nucleofection like in preparation (ii) and (iii). These were compared with a set of PBMCs loaded with peptides. All cells were treated with FLT3L prior to electroporation. […] It could be possible that less handling of PBMCs before RNA loading step was advantageous. Depletion of multiple cell components in the PBMC population required subjecting the cell population to multiple antibodies, washing steps and recovery steps, which amounts to handling stress for the cells.
CD25 depleted PBMCs had detectable Gli3 specific CD8+ T cells, and ME1 specific CD8+ T cells. ME1 specific CD8+ T cells were negligible in all the other sets.

HLA-A02:01 = target: T1, HLA-A02:01 (Homo sapiens, UniProt P04439, D140Y/D185E/D98H/E176V/E277Q/G131W/G231S/I119V/I121R/I166T/I218V/L300P/L318F/N151K/N90K/P208A/P217A/Q86G/Q94H/R138H/R169H/T345S); test: Epitope presentation after RNA electroporation of CD25 depleted PBMC, HLA immunoprecipitation and LC-MS/MS; type: cell-based; conditions: over 24 hours
T1 construct: endogenous in cells; host or cells: CD25 depleted PBMCs (donor cells)
Procedure: CD25 depleted PBMC cells were electroporated with RNA (depicted in FIG. 60C) and cultured over a period of 24 hours. Cells were harvested at the indicated times, pelleted and flash frozen. HLA-A02:01-peptide complexes were immunoprecipitated and then peptides were eluted and analyzed by LC-MS/MS. Peptide eluted from electroporated cells (Light) were compared to heavy labelled standard peptides (Heavy) for positive identification. (FIG. 63A).

[1] = Donor 1, starting material CD14-CD25- (Base Arm)
[2] = Donor 1, starting material CD14-CD25- (Frozen)
[3] = Donor 1, starting material PBMC (CD25−), IL-7 and IL-15
[4] = Donor 2, starting material CD14-CD25- (Base Arm)
[5] = Donor 2, starting material CD14-CD25- (Frozen)
[6] = Donor 2, starting material PBMC (CD25−), IL-7 and IL-15
[7] = Donor 2, starting material PBMC (CD25−)

Substance | Hit Rate (%) (CD8+ T cells; [1]) | Hit Rate (%) (CD8+ T cells; [2]) | Hit Rate (%) (CD8+ T cells; [3]) | Hit Rate (%) (CD8+ T cells; [4]) | Hit Rate (%) (CD8+ T cells; [5]) | Hit Rate (%) (CD8+ T cells; [6]) | presentation of the epitope by HLA-A02:01 after RNA electroporation (HLA-A02:01) | Mean Frequency (CD8+ T cells; [4]) | Mean Frequency (CD8+ T cells; [5]) | Mean Frequency (CD8+ T cells; [7]) | further results
ACTN4: previously identified neoantigen (PIN) short peptide; also encoded in RNA (FIASNGVKLV) | 0% | 0% | 0% | 0% | 0% | 0% | expressed readily as dominant epitopes | – | – | – | fraction of antigen specific CD8+ T cells (multimer) (CD8+ naïve T cells; Prot. 2 (CD25 depleted), day 26, confirmation): 0.095%; fraction of antigen specific CD8+ T cells (multimer) (CD8+ naïve T cells; Prot. 2 (CD25 depleted), day 26, initial): 0.376%
ME-1: previously identified neoantigen (PIN) short peptide; also encoded in RNA (FLDEFMEGV) | 0% | 0% | 0% | 83% | 0% | 67% | expressed readily as dominant epitopes | 0.01% | 0.01% | 2.97% | fraction of antigen specific CD8+ T cells (multimer) (CD8+ naïve T cells; Prot. 2 (bulk), day 19, confirmation): 0.927%; fraction of antigen specific CD8+ T cells (multimer) (CD8+ naïve T cells; Prot. 2 (bulk), day 19, initial): 4.15%; fraction of antigen specific CD8+ T cells (multimer) (CD8+ naïve T cells; Prot. 2 (bulk), day 26, confirmation): 2.34%; fraction of antigen specific CD8+ T cells (multimer) (CD8+ naïve T cells; Prot. 2 (bulk), day 26, initial): 12.6%; CD8+ T cells specific to the peptide (CD8+ naïve T cells; protocol 2, after a long induction): 12.6%
Gli3: Gli3 epitope encoded in the RNA (25 mer epitopes) construct (RLIPGIPTV) | 100% | 100% | 83% | 100% | 67% | 83% | expressed readily as dominant epitopes | 0.79% | 0.12% | 2.68% | Mean Frequency (CD8+ T cells; [1]): 0.98%; Mean Frequency (CD8+ T cells; [2]): 0.52%; Mean Frequency (CD8+ T cells; Donor 1, starting material PBMC (CD25−)): 6.09%; increase in multimer positive cells, RNA transfected versus peptide loaded PBMCs (CD8+ T cells; FIG. 61B): greater than 10 fold
CDK4: CDK4 epitope encoded in the RNA (25 mer epitopes) construct (ACDPHSGHFV) | 0% | 0% | 0% | 0% | 0% | 0% | expressed readily as dominant epitopes | – | – | – | –

Source: US12653887B2, “T cell manufacturing compositions and methods” (priority 2019, dated 2026)
